≈ marks a conversion by molar mass, not a printed value.
Key:
NCI-H460 = experiment: Cytotoxicity against human NCI-H460 cells; type: functional
BXPC-3 = experiment: Cytotoxicity against human […] cells; type: functional
SF-268 = experiment: Cytotoxicity against human SF-268 cells; type: functional
DU-145 = experiment: Cytotoxicity against human DU145 cells; type: functional
P388 = experiment: Cytotoxicity against mouse P388 cells; type: functional; settings: read-out: ED50 (the source's name)
KM-20L2 = experiment: Cytotoxicity against human KM20L2 cells; type: functional
MCF7 = experiment: Cytotoxicity against human MCF7 cells; type: functional
[1] = Aqueous solubility at 25 degC; type: physicochemical; settings: water

Compound `O=C1N[C@H]2[C@H](O)[C@H](O)[C@@H](O)C[C@@H]2c2cc3c(cc21)OCO3` has a GI50 (NCI-H460) of 0.043 µg/mL (≈ 0.147 µM), a GI50 (BXPC-3) of 0.046 µg/mL (≈ 0.157 µM) and a GI50 (SF-268) of 0.059 µg/mL (≈ 0.201 µM). The GI50 (DU-145) was 0.04 µg/mL (≈ 0.136 µM), the EC50 (P388) was 0.029 µg/mL (≈ 0.0989 µM) and the GI50 (KM-20L2) was 0.051 µg/mL (≈ 0.174 µM). For the same compound, the GI50 (MCF7) was 0.034 µg/mL (≈ 0.116 µM) and the solubility [1] was < 1000 µg/mL.
`O=C1N[C@H]2[C@H](O)[C@H](O)[C@@H](O)C[C@@H]2c2cc3c(c(O)c21)OCO3` gave a GI50 (NCI-H460) of 0.0092 µg/mL (≈ 0.0297 µM), a GI50 (BXPC-3) of 0.012 µg/mL (≈ 0.0388 µM) and a GI50 (SF-268) of 0.02 µg/mL (≈ 0.0647 µM). For the same compound, the GI50 (DU-145) was 0.0066 µg/mL (≈ 0.0213 µM), the EC50 (P388) was 0.0024 µg/mL (≈ 0.00776 µM) and the GI50 (KM-20L2) was 0.015 µg/mL (≈ 0.0485 µM). For the same compound, the GI50 (MCF7) was 0.0053 µg/mL (≈ 0.0171 µM) and the solubility [1] was < 1000 µg/mL.
In the case of `O=C1N[C@@H]2C(=C[C@H](O)[C@@H](O)[C@H]2O)c2cc3c(cc21)OCO3`, the GI50 (NCI-H460) is reported as 0.053 µg/mL (≈ 0.182 µM), the GI50 (BXPC-3) is reported as 0.07 µg/mL (≈ 0.24 µM) and the GI50 (SF-268) is reported as 0.12 µg/mL (≈ 0.412 µM). It also gave a GI50 (DU-145) of 0.051 µg/mL (≈ 0.175 µM), an EC50 (P388) of 0.019 µg/mL (≈ 0.0652 µM) and a GI50 (KM-20L2) of 0.084 µg/mL (≈ 0.288 µM). The GI50 (MCF7) was 0.046 µg/mL (≈ 0.158 µM) and the solubility [1] was < 1000 µg/mL.
`O=C1N[C@H]2[C@@H]3OP(=O)([O-])O[C@@H]3[C@@H](O)C[C@@H]2c2cc3c(c(O)c21)OCO3.[Na+]` showed a GI50 (NCI-H460) of 7.8 µg/mL, a GI50 (BXPC-3) of 5.6 µg/mL and a GI50 (SF-268) of 8.8 µg/mL. It also gave a GI50 (DU-145) of 5.2 µg/mL, an EC50 (P388) of 0.88 µg/mL and a GI50 (KM-20L2) of 9.6 µg/mL. The GI50 (MCF7) was 4.6 µg/mL and the solubility [1] was > 10000 µg/mL.
For `O=C1N[C@H]2[C@@H]3OP(=O)([O-])O[C@@H]3[C@@H](O)C[C@@H]2c2cc3c(cc21)OCO3.[K+]`, the GI50 (NCI-H460) was > 1 µg/mL, the GI50 (BXPC-3) was > 1 µg/mL and the GI50 (SF-268) was > 1 µg/mL. The GI50 (DU-145) was > 1 µg/mL, the EC50 (P388) was 1.7 µg/mL and the GI50 (KM-20L2) was > 1 µg/mL. For the same compound, the GI50 (MCF7) was > 1 µg/mL and the solubility [1] was > 5000 µg/mL.
In the case of `O=C1N[C@H]2[C@@H]3OP(=O)([O-])O[C@@H]3[C@@H](O)C[C@@H]2c2cc3c(cc21)OCO3.[Na+]`, the GI50 (NCI-H460) is reported as > 10 µg/mL, the GI50 (BXPC-3) is reported as > 10 µg/mL and the GI50 (SF-268) is reported as > 10 µg/mL. The GI50 (DU-145) was > 10 µg/mL, the EC50 (P388) was 1.6 µg/mL and the GI50 (KM-20L2) was > 10 µg/mL. For the same compound, the GI50 (MCF7) was 7.2 µg/mL and the solubility [1] was > 10000 µg/mL.
For `O=C1N[C@H]2[C@@H]3OP(=O)([O-])O[C@@H]3[C@@H](O)C[C@@H]2c2cc3c(cc21)OCO3.[Li+]`, the GI50 (NCI-H460) was > 1 µg/mL, the GI50 (BXPC-3) was > 1 µg/mL and the GI50 (SF-268) was > 1 µg/mL. For the same compound, the GI50 (DU-145) was > 1 µg/mL, the EC50 (P388) was 0.39 µg/mL and the GI50 (KM-20L2) was > 1 µg/mL. For the same compound, the GI50 (MCF7) was > 1 µg/mL and the solubility [1] was > 5000 µg/mL.
Compound `O=C1N[C@@H]2C(=C[C@H](O)[C@H]3OP(=O)([O-])O[C@H]32)c2cc3c(cc21)OCO3.[Na+]` has a GI50 (NCI-H460) of 4.7 µg/mL, a GI50 (BXPC-3) of 5.3 µg/mL and a GI50 (SF-268) of 6.3 µg/mL. It also gave a GI50 (DU-145) of 3.9 µg/mL, an EC50 (P388) of 1.7 µg/mL and a GI50 (KM-20L2) of 5.6 µg/mL. The GI50 (MCF7) was 4 µg/mL and the solubility [1] was > 190000 µg/mL.
With `O=C1N[C@@H]2C(=C[C@H](O)[C@H]3OP(=O)([O-])O[C@H]32)c2cc3c(cc21)OCO3.[Li+]` the GI50 (NCI-H460) was > 1 µg/mL, the GI50 (BXPC-3) was > 1 µg/mL and the GI50 (SF-268) was > 1 µg/mL. For the same compound, the GI50 (DU-145) was > 1 µg/mL, the EC50 (P388) was 0.42 µg/mL and the GI50 (KM-20L2) was > 1 µg/mL. For the same compound, the GI50 (MCF7) was > 1 µg/mL and the solubility [1] was > 10000 µg/mL.
In the case of `O=C1N[C@H]2[C@@H]3OP(=O)([O-])O[C@@H]3[C@@H](O)C[C@@H]2c2cc3c(c(O)c21)OCO3.[K+]`, the GI50 (NCI-H460) is reported as > 1 µg/mL, the GI50 (BXPC-3) is reported as > 1 µg/mL and the GI50 (SF-268) is reported as > 1 µg/mL. For the same compound, the GI50 (DU-145) was 0.54 µg/mL, the EC50 (P388) was 0.35 µg/mL and the GI50 (KM-20L2) was > 1 µg/mL. For the same compound, the GI50 (MCF7) was 0.64 µg/mL and the solubility [1] was > 1000 µg/mL.
In the case of `O=C1N[C@H]2[C@@H]3OP(=O)([O-])O[C@@H]3[C@@H](O)C[C@@H]2c2cc3c(c(O)c21)OCO3.[Li+]`, the GI50 (NCI-H460) is reported as > 1 µg/mL, the GI50 (BXPC-3) is reported as > 1 µg/mL and the GI50 (SF-268) is reported as > 1 µg/mL. The GI50 (DU-145) was > 1 µg/mL, the EC50 (P388) was 0.26 µg/mL and the GI50 (KM-20L2) was > 1 µg/mL. For the same compound, the GI50 (MCF7) was > 1 µg/mL and the solubility [1] was > 1000 µg/mL.
With `O=C1N[C@@H]2C(=C[C@H](O)[C@H]3OP(=O)([O-])O[C@H]32)c2cc3c(cc21)OCO3.[K+]` the GI50 (NCI-H460) was > 1 µg/mL, the GI50 (BXPC-3) was > 1 µg/mL and the GI50 (SF-268) was > 1 µg/mL. For the same compound, the GI50 (DU-145) was > 1 µg/mL, the EC50 (P388) was 1.4 µg/mL and the GI50 (KM-20L2) was > 1 µg/mL. The GI50 (MCF7) was > 1 µg/mL and the solubility [1] was > 10000 µg/mL.

— ChEMBL document CHEMBL1142579, “Antineoplastic agents. 527. Synthesis of 7-deoxynarcistatin, 7-deoxy-trans-dihydronarcistatin, and trans-dihydronarcistatin 1(1)” (J Nat Prod, 2005)
